Measurements: patent US20220324835A1 (Nurix Therapeutics, Inc., priority 2018, published 2022)

Assays:
T-cell [1] = assay: IL-2 secretion from T-cells co-stimulated with anti-CD3 and anti-CD28 antibody (Biological Example 2); type: cell-based, human; details: Homo sapiens, T-cell, read-out: IL-2 secretion Anti-CD3/Anti-CD28 stimulation; for fold induction at 0.3 µM: 0.3 μM Cbl-b inhibitor; for fold induction at 1 µM: 1 μM Cbl-b inhibitor; for fold induction at 4 µM: 4 μM Cbl-b inhibitor
Procedure, shortened: (§1)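 T-cells were stimulated with anti-CD3 antibody alone or with anti-CD28 antibody, in the presence or absence of Cbl-b inhibitor. IL-2 secretion or CD25 surface staining was measured, and values expressed as fold over the uninhibited baseline […].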

Cbl-b [2] = molecular target: T1, Cbl-b (Homo sapiens, UniProt Q13191); assay: Cbl-b inhibition assay (Cbl-b activity assay, FRET, Biological Example 1; 100 mM NaCl, 60 nM Src kinase); type: biochemical; details: upper bound stated in text lists; read-out: IC50 values in the Cbl-b inhibition assay of Biological Example 1
T1 sequence (Q13191 36-427): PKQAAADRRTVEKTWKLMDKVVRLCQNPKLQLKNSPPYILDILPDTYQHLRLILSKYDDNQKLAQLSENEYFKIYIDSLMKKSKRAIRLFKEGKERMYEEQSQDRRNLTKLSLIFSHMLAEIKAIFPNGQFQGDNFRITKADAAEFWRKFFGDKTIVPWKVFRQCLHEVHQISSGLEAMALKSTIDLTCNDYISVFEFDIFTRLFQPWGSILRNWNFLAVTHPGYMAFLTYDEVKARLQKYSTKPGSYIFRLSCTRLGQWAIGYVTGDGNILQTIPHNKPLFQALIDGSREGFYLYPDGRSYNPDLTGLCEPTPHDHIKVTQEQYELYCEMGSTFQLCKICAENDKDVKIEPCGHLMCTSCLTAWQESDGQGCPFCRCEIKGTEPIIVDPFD
Procedure, shortened: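 N-terminally biotinylated Avi-tagged Cbl-b was mixed with Src kinase, UbcH5B covalently conjugated to Bodipy-fluorescein ubiquitin, and streptavidin-terbium. Src phosphorylation lets Cbl-b bind UbcH5B-Ub, giving terbium-fluorescein FRET; inhibition is read as loss of FRET signal.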

T-cell [3] = assay: CD25 cell surface staining on T-cells co-stimulated with anti-CD3 and anti-CD28 antibody (Biological Example 2); type: cell-based, human; details: Homo sapiens, T-cell, read-out: CD25 staining Anti-CD3/Anti-CD28 stimulation; for fold induction at 0.3 µM: 0.3 μM Cbl-b inhibitor; for fold induction at 1 µM: 1 μM Cbl-b inhibitor; for fold induction at 4 µM: 4 μM Cbl-b inhibitor
Procedure, shortened: as §1

T-cell [4] = assay: IL-2 secretion from T-cells stimulated with anti-CD3 antibody alone (Biological Example 2); type: cell-based, human; details: T-cell, read-out: IL-2 secretion Anti-CD3 stimulation; for fold induction at 1 µM: 1 μM Cbl-b inhibitor; for fold induction at 8 µM: 8 μM Cbl-b inhibitor
T-cell [5] = assay: CD25 cell surface staining on T-cells stimulated with anti-CD3 antibody alone (Biological Example 2); type: cell-based, human; details: T-cell, read-out: CD25 staining Anti-CD3 stimulation; for fold induction at 1 µM: 1 μM Cbl-b inhibitor; for fold induction at 8 µM: 8 μM Cbl-b inhibitor
Cbl-b [6] = molecular target: T1, Cbl-b; assay: Cbl-b activity assay (Cbl-b inhibition assay), TR-FRET of Cbl-b interaction with UbcH5B-Ub; type: biochemical; details: assay buffer with 100 mM NaCl, 60 nM Src kinase; read-out: Cbl-b activity IC50
Procedure, shortened: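 UbcH5B (C85K) conjugated to N-terminally Bodipy-Fluorescein-labeled ubiquitin served as the fluorescent partner. After compound preincubation, Src kinase (60 nM) with 1 mM ATP and 5 mM MgCl2 (final) was added for 1.5 h, followed by a further 1 h incubation. Some values were obtained with 50 mM NaCl and 30 nM Src.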

[7] = fold change over baseline (anti-CD3/anti-CD28 stimulated T-cells without inhibitor)
[8] = Homo sapiens, fold change over baseline (anti-CD3/anti-CD28 stimulated T-cells without inhibitor)
[9] = fold change over baseline, primary human total T-cells

Work on CC(c1cc2c(c(C3CC3)n1)CN(c1cccc(C3(Cc4nncn4C)COC3)c1)C2=O)N1CCCC1 (stereo not drawn) [Example 584, 4-Cyclopropyl-2-(3-(3-((4-methyl-4H-1,2,4-triazol-3-yl)methyl)oxetan-3-yl)phenyl)-6-(l-(pyrrolidin-1-yl)ethyl)-2,3-dihydro-1H-pyrrolo[3,4-c]pyridin-1-one] yielded a fold induction at 0.3 µM (T-cell [1]; [7]) of 1.01 to 2.5, a fold induction at 1 µM (T-cell [1]; [7]) of 2.51 to 5 and an IC50 (Cbl-b [2]) of at most 0.1 µM. The fold induction at 0.3 µM (T-cell [3]; [7]) was 1.01 to 1.3, the fold induction at 1 µM (T-cell [3]; [7]) was 1.01 to 1.3 and the fold induction at 1 µM (T-cell [4]; [8]) was under 0.05. The fold induction at 1 µM (T-cell [5]; [8]) was 0.601 to 0.8 and the IC50 (Cbl-b [6]) was under 0.1 µM.
Molecule CC(c1cc(C(=O)Nc2cccc(C3(Cc4nncn4C)COC3)c2)nc(C2CC2)n1)N1CCC2(CC2)C1 (stereo in doubt) [Example 592a, (R)-6-(1-(5-azaspiro[2.4]heptan-5-yl)ethyl)-2-cyclopropyl-N-(3-(3-((4-methyl-4H-1,2,4-triazol-3-yl)methyl)oxetan-3-yl)phenyl)pyrimidine-4-carboxamide] has a fold induction at 0.3 µM (T-cell [1]; [7]) of 5 to 7.5, a fold induction at 1 µM (T-cell [1]; [7]) of over 7.5 and an IC50 (Cbl-b [2]) of at most 0.1 µM. It also gave a fold induction at 0.3 µM (T-cell [3]; [7]) of 1.01 to 1.3, a fold induction at 1 µM (T-cell [3]; [7]) of 1.01 to 1.3 and a fold induction at 1 µM (T-cell [4]; [8]) of over 0.201. For the same molecule, the fold induction at 1 µM (T-cell [5]; [8]) was over 1 and the IC50 (Cbl-b [6]) was under 0.1 µM.
In the case of C[C@H](Cc1nncn1C)c1cccc(N2Cc3c(cc(C4CC4)cc3C(F)(F)F)C2=O)c1 [Compound 260, (R)-6-cyclopropyl-2-(3-(1-(4-methyl-4H-1,2,4-triazol-3-yl)propan-2-yl)phenyl)-4-(trifluoromethyl)isoindolin-1-one], the fold induction at 0.3 µM (T-cell [1]; [9]) is reported as 1.01 to 2.5, the fold induction at 1 µM (T-cell [1]; [9]) is reported as 1.01 to 2.5 and the fold induction at 4 µM (T-cell [1]; [9]) is reported as 2.51 to 5. The IC50 (Cbl-b [2]) was at most 0.1 µM, the fold induction at 0.3 µM (T-cell [3]; [9]) was 1.01 to 1.3 and the fold induction at 1 µM (T-cell [3]; [9]) was 1.01 to 1.3. It also gave a fold induction at 4 µM (T-cell [3]; [9]) of 1.31 to 1.5, a fold induction at 1 µM (T-cell [4]; [9]) of over 0.201 and a fold induction at 8 µM (T-cell [4]; [9]) of over 0.201. It also gave a fold induction at 1 µM (T-cell [5]; [9]) of 0.801 to 1, a fold induction at 8 µM (T-cell [5]; [9]) of over 1 and an IC50 (Cbl-b [6]) of under 0.1 µM.
With C[C@H](Cc1nncn1C)c1cc(-c2cncs2)nc(N2Cc3c(cccc3C(F)(F)F)C2=O)c1 [Example 682, (R)-2-(4-(1-(4-methyl-4H-1,2,4-triazol-3-yl)propan-2-yl)-6-(thiazol-5-yl)pyridin-2-yl)-4-(trifluoromethyl)isoindolin-1-one] the fold induction at 0.3 µM (T-cell [1]; [7]) was 1.01 to 2.5, the fold induction at 1 µM (T-cell [1]; [7]) was 1.01 to 2.5 and the IC50 (Cbl-b [2]) was at most 1 µM. It also gave a fold induction at 0.3 µM (T-cell [3]; [7]) of 1.01 to 1.3, a fold induction at 1 µM (T-cell [3]; [7]) of 1.01 to 1.3 and a fold induction at 1 µM (T-cell [4]; [8]) of 0.051 to 0.1. It also gave a fold induction at 1 µM (T-cell [5]; [8]) of under 0.6 and an IC50 (Cbl-b [6]) of 0.301 to 1 µM.
For Cc1cc(C(=O)Nc2cccc([C@H](C)Cc3nncn3C)c2)nc2ccnn12 [Compound 329, (R)-7-Methyl-N-(3-(1-(4-methyl-4H-1,2,4-triazol-3-yl)propan-2-yl)phenyl)pyrazolo[1,5-a]pyrimidine-5-carboxamide], the fold induction at 0.3 µM (T-cell [1]; [9]) was 1.01 to 2.5, the fold induction at 1 µM (T-cell [1]; [9]) was 1.01 to 2.5 and the fold induction at 4 µM (T-cell [1]; [9]) was 5 to 7.5. The IC50 (Cbl-b [2]) was at most 0.3 µM, the fold induction at 0.3 µM (T-cell [3]; [9]) was 1.01 to 1.3 and the fold induction at 1 µM (T-cell [3]; [9]) was 1.01 to 1.3. It also gave a fold induction at 4 µM (T-cell [3]; [9]) of 1.31 to 1.5, a fold induction at 1 µM (T-cell [4]; [9]) of 0.101 to 0.15 and a fold induction at 8 µM (T-cell [4]; [9]) of over 0.201. For the same molecule, the fold induction at 1 µM (T-cell [5]; [9]) was 0.601 to 0.8, the fold induction at 8 µM (T-cell [5]; [9]) was over 1 and the IC50 (Cbl-b [6]) was 0.1 to 0.3 µM.
Cn1cnnc1CC1(c2cccc(N3Cc4c(cc(C(O)c5ccccc5)cc4C(F)(F)F)C3=O)c2)COC1 (centres unmarked) [Example 697, 6-(hydroxy(phenyl)methyl)-2-(3-(3-((4-methyl-4H-1,2,4-triazol-3-yl)methyl)oxetan-3-yl)phenyl)-4-(trifluoromethyl)isoindolin-1-one] was tested, and the fold induction at 0.3 µM (T-cell [1]; [7]) was 5 to 7.5, the fold induction at 1 µM (T-cell [1]; [7]) was over 7.5 and the IC50 (Cbl-b [2]) was at most 0.1 µM. For the same molecule, the fold induction at 0.3 µM (T-cell [3]; [7]) was 1.31 to 1.5, the fold induction at 1 µM (T-cell [3]; [7]) was 1.31 to 1.5 and the fold induction at 1 µM (T-cell [4]; [8]) was over 0.201. It also gave a fold induction at 1 µM (T-cell [5]; [8]) of over 1 and an IC50 (Cbl-b [6]) of under 0.1 µM.
